In PMC4049246 (The Journal of Organic Chemistry, 2014):

What was measured:
[1] = physiologically relevant concentrations; cited from earlier work
ERBB2 = ERBB2 (Homo sapiens, UniProt P04626); assay: Inhibition of NRGβ1-induced ERBB2 tyrosine phosphorylation in MCF7 cells; type: cell-based; conditions: for inhibition of NRGβ1-induced phosphorylation of ERBB2: MCF7 cells
[2] = Octanol/water partition coefficient; type: physicochemical
[3] = UV-vis absorption, fluorescence emission and lifetime in chloroform; conditions: for Δν / ε / ϕem: CHCl3; for ϕem: ±10%, perylene in cyclohexane as reference; for τ1: fluorescence lifetime component 1; for τ2: fluorescence lifetime component 2; for f1: fraction of lifetime component 1; for f2: fraction of lifetime component 2

Chain of ERBB2 (P04626 23-1255): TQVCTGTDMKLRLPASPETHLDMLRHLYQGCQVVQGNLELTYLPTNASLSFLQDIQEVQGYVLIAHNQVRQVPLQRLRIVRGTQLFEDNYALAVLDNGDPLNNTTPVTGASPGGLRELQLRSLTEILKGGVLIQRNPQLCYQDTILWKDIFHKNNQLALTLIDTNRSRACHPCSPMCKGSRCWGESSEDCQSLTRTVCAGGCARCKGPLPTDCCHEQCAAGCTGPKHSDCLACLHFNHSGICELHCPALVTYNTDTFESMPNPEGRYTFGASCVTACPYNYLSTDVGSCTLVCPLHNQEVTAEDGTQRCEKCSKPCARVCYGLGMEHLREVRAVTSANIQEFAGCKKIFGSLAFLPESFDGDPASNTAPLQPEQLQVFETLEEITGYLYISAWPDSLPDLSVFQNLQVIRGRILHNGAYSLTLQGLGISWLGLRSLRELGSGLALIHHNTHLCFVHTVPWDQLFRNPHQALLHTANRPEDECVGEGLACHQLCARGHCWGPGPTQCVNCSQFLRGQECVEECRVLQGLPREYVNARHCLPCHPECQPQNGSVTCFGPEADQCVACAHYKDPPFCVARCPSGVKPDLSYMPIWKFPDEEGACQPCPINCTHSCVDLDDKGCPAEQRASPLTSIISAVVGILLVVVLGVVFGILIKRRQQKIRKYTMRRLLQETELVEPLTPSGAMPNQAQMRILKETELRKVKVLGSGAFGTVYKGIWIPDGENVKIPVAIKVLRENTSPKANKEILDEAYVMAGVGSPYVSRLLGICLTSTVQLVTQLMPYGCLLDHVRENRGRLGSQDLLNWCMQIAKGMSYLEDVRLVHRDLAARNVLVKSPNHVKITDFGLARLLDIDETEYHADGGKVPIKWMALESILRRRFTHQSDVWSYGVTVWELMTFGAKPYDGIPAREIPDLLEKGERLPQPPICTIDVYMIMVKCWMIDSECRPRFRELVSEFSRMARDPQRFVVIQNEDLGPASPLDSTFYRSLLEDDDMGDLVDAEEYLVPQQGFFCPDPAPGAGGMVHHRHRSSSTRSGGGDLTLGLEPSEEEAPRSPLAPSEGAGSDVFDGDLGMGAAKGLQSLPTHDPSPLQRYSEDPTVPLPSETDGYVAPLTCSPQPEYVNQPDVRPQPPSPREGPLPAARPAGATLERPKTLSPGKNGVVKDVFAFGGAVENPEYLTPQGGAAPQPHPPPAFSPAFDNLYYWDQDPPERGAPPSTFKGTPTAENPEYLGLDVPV

SMILES	aggregation [1]	inhibition of NRGβ1-induced phosphorylation of ERBB2 (ERBB2; 100 nM probe)	inhibition of NRGβ1-induced phosphorylation of ERBB2 (ERBB2; 10 μM probe)	Ki (ERBB2) [µM]	log Poctanol/water [2]	Δν [3] [cm^–1]	ε [3]	ϕem [3]	τ1 [3] [ns]	τ2 [3] [ns]	f1 [3]	f2 [3]
CS(=O)(=O)CCNCc1ccc(-c2ccc3ncnc(Nc4ccc(OCc5cccc(F)c5)c(Cl)c4)c3c2)o1 [lapatinib]	significant aggregation											
O=[N+]([O-])c1ccc(/C=C/C=C/c2ccc3ncnc(Nc4ccccc4)c3c2)cc1 [3e, 6-((1E,3E)-4-(4-Nitrophenyl)buta-1,3-dienyl)-N-phenylquinazolin-4-amine]		little to no inhibitory action	showed inhibition									
CN(C)c1ccc(/C=C/c2ccc3ncnc(Nc4ccccc4)c3c2)cc1 [2a, (E)-6-(4-Dimethylaminostyryl)-N-phenylquinazolin-4-amine]		little to no inhibitory action	showed inhibition									
CN(C)c1ccc(-c2ccc3ncnc(Nc4ccccc4)c3c2)cc1 [1a, 6-(4-(Dimethylamino)phenyl)-N-phenylquinazolin-4-amine]		little to no inhibitory action	showed inhibition	10	1.50							
COc1ccc(-c2ccc3ncnc(Nc4ccccc4)c3c2)cc1 [1b, 6-(4-Methoxyphenyl)-N-phenylquinazolin-4-amine]						9130	14 300 M^–1 cm^–1	0.02	1.39	6.76	0.70	0.30
C(=C\c1ccc2ncnc(Nc3ccccc3)c2c1)/c1ccccc1 [2c, (E)-N-Phenyl-6-styrylquinazolin-4-amine]						7350	21 900 M^–1 cm^–1	0.02	0.05	1.75	0.11	0.89
O=[N+]([O-])c1ccc(-c2ccc3ncnc(Nc4ccccc4)c3c2)cc1 [1e, 6-(4-Nitrophenyl)-N-phenylquinazolin-4-amine]						6480	19 700 M^–1 cm^–1	0.006	0.11	1.56	0.74	0.26
